# Measured values reported in patent US6291640A, “Peptidomimetic inhibitors of the human cytomegalovirus protease” (Boehringer Ingelheim Ltd., priority 1998, dated 2001).
# Starred links: 1 amine or outer side, 2 acyl side, 3 side chain; linkers in the order of their positions; H or OH if unused. Non-standard residues stand in square brackets, D forms with d. Residues, ends and D or L forms follow the SMILES beside them. ξ: configuration not given here. *: point of attachment. ξ3Amino2oxobutanoyl = CC(N[*:1])C(=O)C(=O)[*:2]; NHBn = c1ccc(CN*)cc1; ξNva = CCCC(N)C(=O)O; CF3 = FC(F)(F)*
# Target: T1, porcine pancreatic elastase (PPE) (Sus scrofa, UniProt P00772)
# T1 construct: porcine pancreas elastase #1027891 lot 83260521-23; purchased Boehringer Mannheim #1027891
# T1 sequence (P00772 27-266): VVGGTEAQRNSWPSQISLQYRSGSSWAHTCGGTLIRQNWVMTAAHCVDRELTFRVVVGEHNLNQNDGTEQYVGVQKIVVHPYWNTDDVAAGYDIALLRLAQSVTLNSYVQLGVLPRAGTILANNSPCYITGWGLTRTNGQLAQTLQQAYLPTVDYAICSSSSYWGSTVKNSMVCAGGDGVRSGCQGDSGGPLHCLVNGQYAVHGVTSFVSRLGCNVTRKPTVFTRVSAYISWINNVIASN
# Assay: Specificity assay, porcine pancreatic elastase
# Assay type: biochemical
# Settings: not given
# Procedure: The specificity of the compounds was determined against a variety of serine proteases (Human leukocyte and porcine pancreatic elastases (HLE & PPE), bovine pancreas α-chymotrypsin) and one cysteine protease (Human liver cathepsin B). In all cases a 96-well plate format protocol using a calorimetric p-nitroanilide (pNA) substrate specific for each enzyme was used. Each assay included a 1 hr pre-incubation enzyme-inhibitor at 30° C. followed by addition of substrate and hydrolysis to ≈30% conversion as measured by scanning on a UV Thermomax microplate reader. Substrate concentrations were kept as low as possible compared to KM to reduce substrate competition. […] The final conditions for each assay were as followed: 50 mM Tris/HCl pH 8, 0.5 M Na2 SO4, 50 mM NaCl, 0.1 mM EDTA, 3% DMSO, 0.01% Tween-20 with [100 μM Succ-AAPF-pNA and 250 pM α-chymotrypsin], [133 μM Succ-AAA-pNA and 8 nM porcine elastase], or [133 μM Succ-AAV-pNA and 8 nM leukocyte elastase]. 100 mM NaH2 PO4 pH 6, 0.1 mM EDTA, 3% DMSO, 1 mM TCEP, 0.01% Tween-20, 30 μM Z-FR-pNA and 5 nM cathepsin B (the stock enzyme was activated in buffer containing 20 mM TCEP before use).
SMILES,potency against PPE relative to HCMV protease,inhibition of PPE
"CC(NC(=O)[C@H](CC(=O)N(C)C)NC(=O)[C@@H](NC(=O)CC(C)(C)C)C(C)(C)C)C(=O)c1nc2ccccc2o1 (stereo partly drawn) [Compound 77, N1-[2-(1,3-benzoxazol-2-yl)-1-methyl-2-oxoethyl]-N4,N4-dimethyl-(2S)-2-{[(1S)-2,2-dimethyl-1-(neopentylcarboxamido)propyl]carboxamido}butanediamide]",seven fold more potent against PPE than against HCMV protease,
"CC(NC(=O)[C@H](CC(=O)N(C)C)NC(=O)[C@@H](NC(=O)CC(C)(C)C)C(C)(C)C)C(=O)c1nc2ncccc2o1 (stereo partly drawn) [Compound 81, N4,N4-dimethyl-N1-(1-methyl-2-[1,3]oxazolo[4,5-b]pyridin-2-yl-2-oxoethyl)-(2S)-2-{[(1S)-2,2-dimethyl-1-(neopentylcarboxamido)propyl]carboxamido} butanediamide]",,not an inhibitor of PPE

# Same assay, conditions: 1 hr pre-incubation at 30° C., Succ-AAA-pNA; read-out: IC50 against PPE
row,SMILES,IC50 [nM]
1,"CC(NC(=O)[C@H](CC(=O)N(C)C)NC(=O)[C@@H](NC(=O)CC(C)(C)C)C(C)(C)C)C(=O)c1nc2ccccc2s1 (stereo partly drawn) [Compound 80, N1-[2-(1,3-benzothiazol-2-yl)-1-methyl-2-oxoethyl]-N4,N4-dimethyl-(2S)-2-{[(1S)-2,2-di-methyl-1-(neopentylcarboxamido)propyl]carboxamido}butanediamide]",9000

# Target: T2, HCMV No protease (Human cytomegalovirus, UniProt P16753)
# T2 construct: at a position located near the center of the precursor (R-site) to excise the catalytic domain (No)
# T2 sequence (P16753 1-256): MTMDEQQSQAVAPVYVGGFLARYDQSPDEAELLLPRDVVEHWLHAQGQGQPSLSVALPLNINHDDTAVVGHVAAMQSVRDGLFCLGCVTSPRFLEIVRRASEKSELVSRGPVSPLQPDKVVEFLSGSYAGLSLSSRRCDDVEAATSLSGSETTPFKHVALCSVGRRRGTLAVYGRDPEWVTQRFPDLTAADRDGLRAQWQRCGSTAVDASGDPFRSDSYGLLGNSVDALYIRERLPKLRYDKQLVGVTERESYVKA
# Assay: biochemical
# Settings: not given
# Procedure: HCMV No protease assay: HCMV No protease was assayed with an internally quenched fluorogenic substrate based on the maturation cleavage site (Abz-[…](3-NO2)R-OH, kcat /KM =260 M^-1 s^-1) . […] A protocol adaptable to a 96-well plate format was designed for the determination of IC50 values of inhibitors. […] After this period, enzymatic hydrolysis was initiated by addition of the fluorogenic substrate and the reaction was performed for 2 hr at 30° C. […] No quenching was required before fluorescence measurement since the total scanning time by the plate reader accessory was brief relative to the duration of the reaction. The incubation buffer (essentially similar to the pre-incubation buffer) contained 50 mM Tris/HCl pH 8, 0.5M Na2 SO4, 50 mM NaCl, 0.1 mM EDTA, 1 mM TCEP, 3% v/v DMSO and 0.05% w/v Casein. The final concentrations of HCMV N, protease (expressed in terms of total monomer concentration) and substrate were 100 nM and 5 μM respectively. IC50 values were obtained through fitting of the inhibition curve to a competitive inhibition model using SAS NLIN procedure. The mode of inhibition was determined by measurements of the initial rates (in cuvettes) at various substrate (Abz-Tbg-Tbg-Asn(Me)2 -Ala-SSRLY(3-NO2)R-OH) and inhibitor concentrations using the same conditions as above.
row,SMILES,IC50 [µM]
1,"CC(NC(=O)[C@H](CC(=O)N(C)C)NC(=O)[C@@H](NC(=O)CC(C)(C)C)C(C)(C)C)P(=O)(Oc1ccccc1)Oc1ccccc1 (stereo partly drawn) [Compound 79, Diphenyl N4 ,N4-dimethyl-N1-(1-aminoethylphosphinate)-(2S)-2-{[(1S)-2,2-dirmethyl-1-(neopentylcarboxamido)propyl]carboxamido}butanediamide]",0.66 ± 0.06

# Same assay, conditions: IC50 (μM)
row,SMILES,IC50 [µM]
1,"CC(=O)N[C@@H](CO)C(=O)N[C@@H](Cc1ccc(O)cc1)C(=O)N[C@H](C(=O)N[C@@H](CCCCN)C(=O)NC(C)C(=O)C(=O)NCc1ccccc1)C(C)C (stereo partly drawn) [Compound 218, Ac-Ser-Tyr-Val-Lys-Ala(d,l)-C(O)-NH-CH2 -Ph] (Ac-SYVK[ξ3Amino2oxobutanoyl]-NHBn)",9.4

# Same assay, conditions: inhibitor pre-incubated 5 hr at 30° C. with enzyme, fluorogenic substrate; read-out: IC50
row,SMILES,IC50 [µM]
1,CC(NC(=O)[C@H](CC(=O)N(C)C)NC(=O)[C@@H](NC(=O)[C@@H](NC(=O)OC(C)(C)C)C(C)C)C(C)C)C(=O)C(=O)Nc1ccccc1 (some centres unmarked) [Compound 410],1.5
2,CC[C@@H](NC(=O)C(=O)C(C)NC(=O)[C@H](CC(=O)N(C)C)NC(=O)[C@@H](NC(=O)[C@@H](NC(=O)CCCCCN)C(C)(C)C)C(C)(C)C)c1ccccc1 (some centres unmarked) [Compound 97],0.073
3,"Cc1ccc2nc(C(=O)C(C)NC(=O)[C@H](CC(=O)N(C)C)NC(=O)[C@@H](NC(=O)CC(C)(C)C)C(C)(C)C)oc2c1 (stereo partly drawn) [Compound 82, N4,N4-dimethyl-N1-[1-methyl-2-(6-methyl-1,3-benzoxazol-2-yl)-2-oxoethyl]-(2S)-2-{[(1S)-2,2-dimethyl-1-(neopentylcarboxamido)propyl]carboxamido}butanediamide]",0.6 ± 0.1
4,CC(NC(=O)[C@H](CC(=O)N(C)C)NC(=O)[C@@H](NC(=O)[C@@H](NC(=O)OC(C)(C)C)C(C)C)C(C)C)C(=O)C(=O)NC1CCCCC1 (some centres unmarked) [Compound 411],1.8
5,CC(NC(=O)[C@H](CCC(=O)N(C)C)NC(=O)[C@@H](NC(=O)CC(C)(C)C)C(C)(C)C)C(=O)C(F)(F)C(F)(F)F (some centres unmarked) [Compound 307],2
6,CC(NC(=O)[C@H](CC(=O)N(C)C)NC(=O)[C@@H](NC(=O)[C@@H](NC(=O)OC(C)(C)C)C(C)C)C(C)C)C(=O)C(=O)NCC1CCCCC1 (some centres unmarked) [Compound 413],4.4
7,CC(NC(=O)[C@@H](CC(=O)[C@@H](NC(=O)CC(C)(C)C)C(C)(C)C)CC(=O)C(C)(C)C)C(=O)C(F)(F)F (some centres unmarked) [Compound 311],6.8
8,CC(NC(=O)[C@H](CC(=O)NC(C)(C)C)NC(=O)[C@@H](NC(=O)CC(C)(C)C)C(C)(C)C)C(=O)C(F)(F)C(F)(F)F (some centres unmarked) [Compound 306],0.5
9,CC(NC(=O)[C@H](CC(=O)N(C)C)NC(=O)[C@@H](NC(=O)CC(C)(C)C)C(C)(C)C)C(=O)C(=O)NCc1ccc(C(=O)N2CCOCC2)cc1 (some centres unmarked) [Compound 405],0.5
10,CC(NC(=O)[C@H](CC(=O)N1CCCC1)NC(=O)[C@@H](NC(=O)CC(C)(C)C)C(C)(C)C)C(=O)C(=O)NCc1ccc(I)cc1 (some centres unmarked) [Compound 98],0.34
11,CC[C@@H](NC(=O)C(=O)C(C)NC(=O)[C@H](CC(=O)N(C)C)NC(=O)[C@@H](NC(=O)[C@@H](NC(=O)CCCCCNC(=O)OC(C)(C)C)C(C)(C)C)C(C)(C)C)c1ccccc1 (some centres unmarked) [Compound 96],0.057
12,CC(NC(=O)[C@H](CC(=O)N(C)C)NC(=O)[C@@H](NC(=O)[C@@H](N)C(C)C)C(C)C)C(=O)C(=O)NCc1ccc(C(F)(F)F)cc1 (some centres unmarked) [Compound 404],1.7
13,"CC(NC(=O)[C@@H](CC(=O)C(NC(=O)CC(C)(C)C)C(C)(C)C)CC(=O)N(C)C)C(=O)C(F)(F)C(F)(F)F (mixture of isomers) [Compound 312, N^4,N^4 -Dimethyl-N^1-[1-(R/ S)-methyl-2-oxo-3,3,4,4,4-pentafluorobutyl]-(2S)-2-{3-[(3,3-dimethyl-1-oxobutyl)-amino]-4,4-dimethyl-2-oxopentyl}-butanediamide]",5.8
14,CC(NC(=O)[C@H](CC(=O)N(C)C)NC(=O)[C@@H](NC(=O)[C@@H](NC(=O)OC(C)(C)C)C(C)C)C(C)C)C(=O)C(=O)NCC(C)(C)C (some centres unmarked) [Compound 402],4.3
15,CC[C@@H](NC(=O)C(=O)C(C)NC(=O)[C@H](CC(=O)N(C)CCc1ccccn1)NC(=O)[C@@H](NC(=O)CC(C)(C)C)C(C)(C)C)c1ccccc1 (some centres unmarked) [Compound 309],0.12
16,CC(NC(=O)[C@H](CC(=O)N1CCOCC1)NC(=O)[C@@H](NC(=O)CC(C)(C)C)C(C)(C)C)C(=O)C(F)(F)C(F)(F)F (some centres unmarked) [Compound 308],0.3
17,CC(NC(=O)[C@H](CC(=O)N(C)C)NC(=O)[C@@H](NC(=O)CC(C)(C)C)C(C)(C)C)C(=O)C(=O)NC[C@@H](C)c1ccccc1 (some centres unmarked) [Compound 408],0.2
18,CC[C@@H](NC(=O)C(=O)C(C)NC(=O)[C@H](CS(N)(=O)=O)NC(=O)[C@@H](NC(=O)CC(C)(C)C)C(C)(C)C)c1ccccc1 (some centres unmarked) [Compound 310],0.97
19,C[C@H](NC(=O)[C@H](CC(=O)N1CCCC1)NC(=O)[C@@H](NC(=O)CC(C)(C)C)C(C)(C)C)C(=O)c1nc2ccccc2o1 [Compound 304],0.5
20,CC(NC(=O)[C@H](CC(=O)N(C)C)NC(=O)[C@@H](NC(=O)CC(C)(C)C)C(C)(C)C)C(=O)C(=O)N[C@H](C)c1cccc2ccccc12 (some centres unmarked) [Compound 407],0.2
21,Cc1ccc(NC(=O)C(=O)C(C)NC(=O)[C@H](CC(=O)N(C)C)NC(=O)[C@@H](NC(=O)[C@@H](NC(=O)OC(C)(C)C)C(C)C)C(C)C)cc1 (some centres unmarked) [Compound 409],1.4
22,CCCCC[C@@H](C)NC(=O)C(=O)C(C)NC(=O)[C@H](CC(=O)N(C)C)NC(=O)[C@@H](NC(=O)CC(C)(C)C)C(C)(C)C (some centres unmarked) [Compound 406],0.8
23,C=CCOC(=O)OCCNC(=O)C(=O)C(C)NC(=O)[C@H](CC(=O)N(C)C)NC(=O)[C@@H](NC(=O)CC(C)(C)C)C(C)(C)C (some centres unmarked) [Compound 401],0.59
24,CC(NC(=O)[C@H](CC(=O)N(C)C)NC(=O)[C@@H](NC(=O)[C@@H](NC(=O)OC(C)(C)C)C(C)C)C(C)C)C(=O)C(=O)NCCc1ccccc1 (some centres unmarked) [Compound 412],0.85
25,CC(NC(=O)[C@H](CC(=O)N1CCCC1)NC(=O)[C@@H](NC(=O)CC(C)(C)C)C(C)(C)C)C(=O)C(=O)NCCOCc1ccccc1 (some centres unmarked) [Compound 305],0.3
26,CCCC(NC(=O)[C@H](CC(N)=O)NC(=O)[C@@H](NC(=O)[C@@H](NC(C)=O)C(C)C)C(C)C)C(=O)C(F)(F)F (some centres unmarked) [Compound 45] (Ac-VVN[ξNva]-CF3),> 300
27,CC(NC(=O)[C@H](CC(=O)N(C)C)NC(=O)[C@@H](NC(=O)[C@@H](NC(=O)OC(C)(C)C)C(C)C)C(C)C)C(=O)C(=O)Nc1cccc(C(N)=O)c1 (some centres unmarked) [Compound 414],1.6

# Same assay, conditions: relative to compound 96
row,SMILES,improvement of potency (factor) on removal of the Boc group
1,CC[C@@H](NC(=O)C(=O)C(C)NC(=O)[C@H](CC(=O)N(C)C)NC(=O)[C@@H](NC(=O)[C@@H](NC(=O)CCCCCN)C(C)(C)C)C(C)(C)C)c1ccccc1 (some centres unmarked) [Compound 97],2

# Same assay, conditions: text of b731; read-out: IC50 value / potency
row,SMILES,IC50 [µM]
1,CC[C@@H](NC(=O)C(=O)C(C)NC(=O)[C@H](CC(=O)N(C)C)NC(=O)[C@@H](NC(=O)[C@@H](NC(=O)CCCCCN)C(C)(C)C)C(C)(C)C)c1ccccc1 (some centres unmarked) [Compound 97],< 0.04
2,CC[C@@H](NC(=O)C(=O)C(C)NC(=O)[C@H](CC(=O)N(C)C)NC(=O)[C@@H](NC(=O)[C@@H](NC(=O)CCCCCNC(=O)OC(C)(C)C)C(C)(C)C)C(C)(C)C)c1ccccc1 (some centres unmarked) [Compound 96],0.075
